# Experiments:
# MaoN5 = target: T1, MaoN5 (Aspergillus niger, UniProt P46882, D385S/I246M/N336S/T384N); assay: Enzymatic N-dealkylation assay MAOs/CAOs, HPLC product release; format: biochemical; details: for enzymatischer Abbau von Modell-N-Alkylverbindungen: MaoN5: 10 mM substrate, phosphate buffer pH 7,5, 37 °C, at least 48 h; for Aktivität / Freisetzung des Zielprodukts: MaoN5
# T1 construct: His-tag (N); made in house; host or cells: Escherichia coli BL21(DE3) pET21a
# Method: (§1) Die Expression der in Tabelle 1 gezeigten MAOs und CAOs erfolgte im Stamm E. coli BL21(DE3). Der Zellaufschluss erfolgte durch Ultraschallbehandlung und die Enzymreinigung über einen N-terminalen His-tag und das IMAC-System (Nickel-NTA) nach Angaben des Herstellers (Fisher Scientific GmbH) mit anschließender Umpufferung in einen Lagerpuffer (25 mM Tris/HCl pH 7.8, 1 mM dithiothreitol (DTT), 1 mM PMSF, 300 mM NaCl) über PD-10-Säulen nach Angaben des Herstellers (cytiva). Die erfolgreiche Expression und Aufreinigung wurde über ein SDS-PAGE kontrolliert. Tabelle 1: Untersuchte Enzyme im Rahmen der enzymatischen N-Dealkylierung.
# (§2) Für MAOs/CAOs erfolgte die Reaktion im 200 µL Maßstab bei 37 °C für mindestens 48 h und 200 rpm. Dazu wurden 100 µL der oben beschriebenen Enzympräparate in Phosphatpuffer (bevorzugt zwischen 50 bis 200 mM, pH 7,5) mit 10 mM eines der sechs in Tabelle 2 gelisteten Substrate versetzt. Als Co-Solvenz für das Substrat wurde Dimethylsulfoxid eingesetzt (maximal 5 % (w/w) der finalen Umsetzungsreaktion). Um eine ausreichende Sauerstoffversorgung über den Kopfraum des Reaktionsansatzes zu gewährleisten, wurden Reaktionsgefäße oder Mikrotiterplatten in eckiger Ausführungsform und 10-fachem Gesamtvolumen bevorzugt.
# (§3) Als Negativkontrollen wurden für alle Substrate und Bedingungen Assays ohne Enzymlösung durchgeführt. Alle Assays erfolgten mindestens in Triplikaten.
# (§4) Zum Abstoppen der enzymatischen Reaktion und Extraktion erfolgte die Verdünnung des Reaktionsansatzes in gleichen Teilen Acetonitril. Die Proben wurden filtriert und die Produktfreisetzung per HPLC analysiert (ZORBAX Eclipse C18 Säule (Partikelgröße von […], 4,6 × 75 mm (Agilent Technologies, Santa Clara, USA), 40 °C, Laufmittel A: Acetonitril mit 5 % Reinstwasser, Laufmittel B: 10 mM Natriumphosphat-Puffer pH 7,0 mit 5 % ACN, Fluss: 1 mL/min). Das Profil der HPLC-Methode ist in Tabelle 3 gezeigt. Tabelle 4 zeigt die Elutionszeiten der Komponenten mit dieser Messmethode. Tabelle 3: Profil der HPLC-Methode.
# MaoN = target: T2, MaoN (Aspergillus niger, UniProt P46882); assay: as above; format: biochemical; details: 10 mM substrate, phosphate buffer pH 7,5, 37 °C, at least 48 h
# T2 construct: His-tag (N); made in house; host or cells: Escherichia coli BL21(DE3) pET21a
# Method: as §1, §2, §3, §4
# UPO #13 = assay: Enzymatic N-dealkylation assay UPOs with H2O2, HPLC; format: biochemical; details: for enzymatischer Abbau von Modell-N-Alkylverbindungen: UPO #13: 4 mM substrate, Tricine buffer 100 mM, 30 °C, at least 4 h, H2O2 added every 30 min
# Method: (§5) Die vier Enzyme UPO #13, UPO #13M1, UPO #13M3 und UPO #13M5 wurden von Aminoverse B.V. bereitgestellt. Zusätzlich wurde das Wildtyp AaeUPO aus der Basidiomycete Agrocybe aegerita (Ullrich, R., et al. (2004). "Novel haloperoxidase from the agaric basidiomycete Agrocybe aegerita oxidizes aryl alcohols and aldehydes." Appl Environ Microbiol 70(8): 4575-4581) von Aminoverse B.V. erworben.
# (§6) Für UPOs erfolgte die Reaktion im 300 µL Maßstab in Tricine Puffer (100 mM) bei 30 °C für mindestens 4 h und 200 rpm. Dazu wurden die von Aminoverse B.V. bereitgestellten Enzympräparate in dH2O gelöst (ca. 0,575 mg/mL) und 30 µL der Enzymlösung in den Assay eingesetzt, welcher mit 4 mM eines der sechs in Tabelle 2 gelisteten Substrate versetzt war. Der Assay wurde mit Zugabe des Co-Substrats H2O2 (1,5 µL einer 200 mM H2O2-Lösung) gestartet, welches alle 30 min wiederholt zugegeben wurde (final 12 µL H2O2).
# as §3, §4
# UPO #13M3 = assay: as above; format: biochemical; details: for enzymatischer Abbau von Modell-N-Alkylverbindungen: UPO #13M3: 4 mM substrate, Tricine buffer 100 mM, 30 °C, at least 4 h, H2O2 added every 30 min
# Method: as §5, §6, §3, §4
# UPO #13M5 = assay: as above; format: biochemical; details: for enzymatischer Abbau von Modell-N-Alkylverbindungen: UPO #13M5: 4 mM substrate, Tricine buffer 100 mM, 30 °C, at least 4 h, H2O2 added every 30 min
# Method: as §5, §6, §3, §4
# UPO #13M1 = assay: as above; format: biochemical; details: for enzymatischer Abbau von Modell-N-Alkylverbindungen: UPO #13M1: 4 mM substrate, Tricine buffer 100 mM, 30 °C, at least 4 h, H2O2 added every 30 min
# Method: as §5, §6, §3, §4
# ChaO YT02 = assay: Enzymatic N-dealkylation assay MAOs/CAOs, HPLC product release; format: biochemical, Acinetobacter sp. YT-02; details: for enzymatischer Abbau von Modell-N-Alkylverbindungen: ChaO YT02: 10 mM substrate, phosphate buffer pH 7,5, 37 °C, at least 48 h
# Method: as §1, §2, §3, §4
# AaeUPO = target: T3, AaeUPO (Cyclocybe aegerita, UniProt B9W4V6); assay: Enzymatic N-dealkylation assay UPOs with H2O2, HPLC; format: biochemical, Agrocybe aegerita; details: for enzymatischer Abbau von Modell-N-Alkylverbindungen: AaeUPO: 4 mM substrate, Tricine buffer 100 mM, 30 °C, at least 4 h, H2O2 added every 30 min
# T3 construct: purchased Aminoverse B.V
# T3 sequence (B9W4V6 44-371): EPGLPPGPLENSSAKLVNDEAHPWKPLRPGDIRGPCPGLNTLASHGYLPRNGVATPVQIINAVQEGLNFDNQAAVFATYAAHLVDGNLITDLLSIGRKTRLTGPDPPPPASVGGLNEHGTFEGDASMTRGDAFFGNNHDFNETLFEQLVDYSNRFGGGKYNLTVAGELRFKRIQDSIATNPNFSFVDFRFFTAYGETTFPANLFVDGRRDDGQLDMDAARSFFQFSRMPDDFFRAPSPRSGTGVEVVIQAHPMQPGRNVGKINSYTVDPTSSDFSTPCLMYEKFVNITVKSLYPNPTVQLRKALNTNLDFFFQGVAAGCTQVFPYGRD
# Method: Die vier Enzyme UPO #13, UPO #13M1, UPO #13M3 und UPO #13M5 wurden von Aminoverse B.V. bereitgestellt.
# Für UPOs erfolgte die Reaktion im 300 µL Maßstab in Tricine Puffer (100 mM) bei 30 °C für mindestens 4 h und 200 rpm. […] Der Assay wurde mit Zugabe des Co-Substrats H2O2 (1,5 µL einer 200 mM H2O2-Lösung) gestartet, welches alle 30 min wiederholt zugegeben wurde (final 12 µL H2O2).
# as §3, §4
# ChaoA L225A = assay: Enzymatic N-dealkylation assay MAOs/CAOs, HPLC product release; format: biochemical, Brevibacterium oxydans strain IH-35A; details: for enzymatischer Abbau von Modell-N-Alkylverbindungen: ChaoA L225A: 10 mM substrate, phosphate buffer pH 7,5, 37 °C, at least 48 h; for Aktivität / Freisetzung des Zielprodukts: ChaoA L225A
# Method: as §1, §2, §3, §4
# MAOs/CAOs = assay: Enzymatic N-dealkylation assay, statement for the MAOs/CAOs as a group; format: biochemical
# Method: as §1, §2, §3, §4
# [1] = UPO #13, mol% relative to substrate used
# [2] = UPO #13M3, mol% relative to substrate used
# [3] = UPO #13M5, mol% relative to substrate used
# [4] = UPO #13M1, mol% relative to substrate used
# [5] = AaeUPO, mol% relative to substrate used
# T2 sequence (P46882 whole entry): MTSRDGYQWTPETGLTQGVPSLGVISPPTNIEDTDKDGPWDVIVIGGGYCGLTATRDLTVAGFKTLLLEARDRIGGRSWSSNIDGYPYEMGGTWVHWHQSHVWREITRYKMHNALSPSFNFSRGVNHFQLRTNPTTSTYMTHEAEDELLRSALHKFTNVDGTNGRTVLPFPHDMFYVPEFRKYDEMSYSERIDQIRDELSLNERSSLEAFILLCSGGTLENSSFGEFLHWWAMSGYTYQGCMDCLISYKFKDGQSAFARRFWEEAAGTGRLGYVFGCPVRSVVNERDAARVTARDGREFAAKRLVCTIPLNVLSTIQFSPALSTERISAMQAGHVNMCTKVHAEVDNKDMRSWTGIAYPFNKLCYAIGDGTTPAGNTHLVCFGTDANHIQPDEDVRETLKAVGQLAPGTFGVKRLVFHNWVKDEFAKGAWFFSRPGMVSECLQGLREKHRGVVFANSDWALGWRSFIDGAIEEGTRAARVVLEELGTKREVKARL
# T1 sequence (P46882 whole entry I246M/N336S/T384N/D385S): as the sequence (P46882 whole entry) above, with I246M, N336S, T384N, D385S counted along it
Compound,enzymatischer Abbau von Modell-N-Alkylverbindungen: MaoN5 (MaoN5),Aktivität / Freisetzung des Zielprodukts (MaoN5),enzymatischer Abbau von Modell-N-Alkylverbindungen: MaoN (MaoN),enzymatischer Abbau von Modell-N-Alkylverbindungen: UPO #13 (UPO #13),"4,4'-MDA-Freisetzung (UPO #13; [1])",enzymatischer Abbau von Modell-N-Alkylverbindungen: UPO #13M3 (UPO #13M3),"4,4'-MDA-Freisetzung (UPO #13M3; [2])",enzymatischer Abbau von Modell-N-Alkylverbindungen: UPO #13M5 (UPO #13M5),"4,4'-MDA-Freisetzung (UPO #13M5; [3])",enzymatischer Abbau von Modell-N-Alkylverbindungen: UPO #13M1 (UPO #13M1),"4,4'-MDA-Freisetzung (UPO #13M1; [4])",enzymatischer Abbau von Modell-N-Alkylverbindungen: ChaO YT02 (ChaO YT02),enzymatischer Abbau von Modell-N-Alkylverbindungen: AaeUPO (AaeUPO),"4,4'-MDA-Freisetzung (AaeUPO; [5])",enzymatischer Abbau von Modell-N-Alkylverbindungen: ChaoA L225A (ChaoA L225A),Aktivität / Freisetzung des Zielprodukts (ChaoA L225A),Aktivität (MAOs/CAOs),other results
"CCNc1ccc(Cc2ccc(NCC)cc2)cc1 [N,N'-Diethyl-4,4'-MDA]",schwach,"nur sehr schwache 4,4'-MDA-Freisetzung",nein,ja/deg^1,"2,6 mol%",ja/deg^1,"2,9 mol%",ja/deg^1,"2,8 mol%",ja/deg^1,"2,5 mol%",nein,nein,0 mol%,schwach,"nur sehr schwache 4,4'-MDA-Freisetzung",,
"CNc1ccc(Cc2ccc(NC)cc2)cc1 [N,N'-Dimethyl-4,4'-MDA]",schwach,geringerer Aktivität,nein,,"2,1 mol%",,"2,8 mol%",,"2,2 mol%",,"2,5 mol%",nein,,"0,7 mol%",schwach,geringerer Aktivität,,"Abbau des eingesetzten Substrates (UPO #13; UPO #13, substrate no longer detected in HPLC chromatograms): vollständig abgebaut; Abbau des eingesetzten Substrates (UPO #13M3; UPO #13M3, substrate no longer detected in HPLC chromatograms): vollständig abgebaut; Abbau des eingesetzten Substrates (UPO #13M5; UPO #13M5, substrate no longer detected in HPLC chromatograms): vollständig abgebaut"
"CN(C)c1ccc(Cc2ccc(N(C)C)cc2)cc1 [N,N,N',N'-Tetramethyl-4,4'-MDA, N,N,N',N'-Tetramethyl-4,4'-diaminodiphenylmethan]",nein,,nein,,"1,1 mol%",,"1,4 mol%",,"1,3 mol%",,"1,1 mol%",nein,nein,"0,1 mol%",nein,,keine reproduzierbare Aktivität,"N,N'-Dimethyl-4,4'-MDA - Zwischenprodukt der enzymatischen Reaktion - nachgewiesen (UPO #13; [1]): 25,7 mol%; N,N'-Dimethyl-4,4'-MDA - Zwischenprodukt der enzymatischen Reaktion - nachgewiesen (UPO #13M3; [2]): 27,5 mol%; N,N'-Dimethyl-4,4'-MDA - Zwischenprodukt der enzymatischen Reaktion - nachgewiesen (UPO #13M5; [3]): 27,9 mol%; N,N'-Dimethyl-4,4'-MDA - Zwischenprodukt der enzymatischen Reaktion - nachgewiesen (UPO #13M1; [4]): 31,8 mol%; N,N'-Dimethyl-4,4'-MDA - Zwischenprodukt der enzymatischen Reaktion - nachgewiesen (AaeUPO; [5]): 0 mol%"
c1ccc(CNc2ccccc2)cc1 [N-Benzylanilin],nein,,nein,deg,,deg,,deg,,deg,,schwach,deg,,schwach,spezifische Aktivität,,Aktivität / Freisetzung des Zielprodukts (ChaO YT02; ChaO YT02): spezifische Aktivität
CCN(C)c1ccccc1 [N-Ethyl-N-Methylanilin],nein,,nein,,,,,nein,,,,nein,nein,,nein,,keine Aktivität,Anilin als Zielprodukt (UPO #13; UPO #13): nachgewiesen; Anilin als Zielprodukt (UPO #13M3; UPO #13M3): nachgewiesen; Anilin als Zielprodukt (UPO #13M1; UPO #13M1): nachgewiesen
CCNc1ccccc1 [N-Ethylanilin],schwach,,,deg,,deg,,deg,,deg,,schwach,deg,,,,spezifische Aktivität,

# From patent EP4600367A1, “ENZYMATIC CLEAVAGE OF N-ALKYL COMPOUNDS AFTER CHEMOLYSIS OF POLYURETHANES” (Covestro Deutschland AG, priority 2024, dated 2025)
